Experimental data: publication PMC4942054 (PLoS ONE, 2016)

Target: T1, dihydrofolate reductase (DHFR) from chicken liver (Gallus gallus, UniProt P00378)
T1 sequence (P00378 1-189): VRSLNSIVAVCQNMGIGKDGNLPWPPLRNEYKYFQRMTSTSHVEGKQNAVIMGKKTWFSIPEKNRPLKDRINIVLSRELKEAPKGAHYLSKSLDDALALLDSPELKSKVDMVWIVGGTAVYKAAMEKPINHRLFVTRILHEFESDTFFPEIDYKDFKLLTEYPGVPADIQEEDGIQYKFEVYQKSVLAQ
Experiment: DHF-dependent NADPH oxidation, absorbance at […] nm
Type: biochemical
Settings: 0.187 mM DHF, 0.137 mM NADPH, 0.5 M KCl, 0.05 M Tris-HCl pH 7.5, 25°C, 40 min; partially purified enzyme 35 μg/ml; sample released from PEG40 conjugate at pH 3.0, equipotent to MTX-hexamethylenamine

CN(Cc1cnc2nc(N)nc(N)c2n1)c1ccc(C(=O)N[C@@H](CCC(=O)NCCCCCCN)C(=O)O)cc1 [MTX-hexamethylenamine]
IC50: 190 ± 7 nM
